# Assay: xn = mol fraction of the nth substance listed
# Conditions: 100 kPa
compound,measurement,setting,value
CC(=O)[O-].COCCn1cc[n+](C)c1 + O,electrical conductivity,"288.15 K, x1 = 0.8396",0.351 S/m
same,viscosity,"288.15 K, x1 = 0.8396",74.3 mPa·s
same,electrical conductivity,"288.15 K, x1 = 0.8663",0.313 S/m
same,viscosity,"288.15 K, x1 = 0.8663",76.6 mPa·s
same,electrical conductivity,"288.15 K, x1 = 0.8945",0.278 S/m
same,viscosity,"288.15 K, x1 = 0.8945",78.6 mPa·s
same,electrical conductivity,"288.15 K, x1 = 0.9225",0.244 S/m
same,viscosity,"288.15 K, x1 = 0.9225",80.4 mPa·s
same,electrical conductivity,"288.15 K, x1 = 0.9511",0.215 S/m
same,viscosity,"288.15 K, x1 = 0.9511",82.1 mPa·s
same,electrical conductivity,"288.15 K, x1 = 1",0.162 S/m
same,viscosity,"288.15 K, x1 = 1",85.1 mPa·s
same,electrical conductivity,"293.15 K, x1 = 0.8663",0.373 S/m
same,viscosity,"293.15 K, x1 = 0.8663",56.95 mPa·s
same,electrical conductivity,"293.15 K, x1 = 0.9225",0.3 S/m
same,viscosity,"293.15 K, x1 = 0.9225",60.54 mPa·s
same,electrical conductivity,"293.15 K, x1 = 0.9511",0.268 S/m
same,viscosity,"293.15 K, x1 = 0.9511",62.23 mPa·s
same,electrical conductivity,"293.15 K, x1 = 1",0.215 S/m
same,viscosity,"293.15 K, x1 = 1",65.09 mPa·s
same,electrical conductivity,"298.15 K, x1 = 0.8396",0.476 S/m
same,viscosity,"298.15 K, x1 = 0.8396",41.38 mPa·s
same,electrical conductivity,"298.15 K, x1 = 0.8663",0.437 S/m
same,viscosity,"298.15 K, x1 = 0.8663",43.06 mPa·s
same,electrical conductivity,"298.15 K, x1 = 0.8945",0.405 S/m
same,viscosity,"298.15 K, x1 = 0.8945",44.51 mPa·s
same,electrical conductivity,"298.15 K, x1 = 0.9225",0.371 S/m
same,viscosity,"298.15 K, x1 = 0.9225",45.75 mPa·s
same,electrical conductivity,"298.15 K, x1 = 0.9511",0.342 S/m
same,viscosity,"298.15 K, x1 = 0.9511",46.93 mPa·s
same,electrical conductivity,"298.15 K, x1 = 1",0.29 S/m
same,viscosity,"298.15 K, x1 = 1",49.12 mPa·s
same,electrical conductivity,"303.15 K, x1 = 0.8396",0.564 S/m
same,viscosity,"303.15 K, x1 = 0.8396",28.47 mPa·s
same,electrical conductivity,"303.15 K, x1 = 0.8663",0.529 S/m
same,electrical conductivity,"303.15 K, x1 = 0.9225",0.466 S/m
same,viscosity,"303.15 K, x1 = 0.9225",34.3 mPa·s
same,electrical conductivity,"303.15 K, x1 = 0.9511",0.439 S/m
same,viscosity,"303.15 K, x1 = 0.9511",35.83 mPa·s
same,electrical conductivity,"303.15 K, x1 = 1",0.39 S/m
same,viscosity,"303.15 K, x1 = 1",38.77 mPa·s
same,electrical conductivity,"308.15 K, x1 = 0.8396",0.673 S/m
same,viscosity,"308.15 K, x1 = 0.8396",24.95 mPa·s
same,electrical conductivity,"308.15 K, x1 = 0.8945",0.604 S/m
same,viscosity,"308.15 K, x1 = 0.8945",26.78 mPa·s
same,electrical conductivity,"308.15 K, x1 = 0.9225",0.572 S/m
same,viscosity,"308.15 K, x1 = 0.9225",27.6 mPa·s
same,electrical conductivity,"308.15 K, x1 = 0.9511",0.541 S/m
same,viscosity,"308.15 K, x1 = 0.9511",28.32 mPa·s
same,electrical conductivity,"308.15 K, x1 = 1",0.491 S/m
same,viscosity,"308.15 K, x1 = 1",29.64 mPa·s
same,electrical conductivity,"313.15 K, x1 = 0.8396",0.807 S/m
same,viscosity,"313.15 K, x1 = 0.8396",20.97 mPa·s
same,electrical conductivity,"313.15 K, x1 = 0.8663",0.773 S/m
same,viscosity,"313.15 K, x1 = 0.8663",21.65 mPa·s
same,electrical conductivity,"313.15 K, x1 = 0.8945",0.733 S/m
same,viscosity,"313.15 K, x1 = 0.8945",22.3 mPa·s
same,electrical conductivity,"313.15 K, x1 = 0.9225",0.698 S/m
same,viscosity,"313.15 K, x1 = 0.9225",22.87 mPa·s
same,electrical conductivity,"313.15 K, x1 = 0.9511",0.666 S/m
same,viscosity,"313.15 K, x1 = 0.9511",23.4 mPa·s
same,electrical conductivity,"313.15 K, x1 = 1",0.611 S/m
same,viscosity,"313.15 K, x1 = 1",24.35 mPa·s
same,electrical conductivity,"318.15 K, x1 = 0.8396",0.963 S/m
same,viscosity,"318.15 K, x1 = 0.8396",17.28 mPa·s
same,electrical conductivity,"318.15 K, x1 = 0.8945",0.886 S/m
same,viscosity,"318.15 K, x1 = 0.8945",18.26 mPa·s
same,electrical conductivity,"318.15 K, x1 = 0.9225",0.851 S/m
same,viscosity,"318.15 K, x1 = 0.9225",18.74 mPa·s
same,electrical conductivity,"318.15 K, x1 = 0.9511",0.814 S/m
same,viscosity,"318.15 K, x1 = 0.9511",19.18 mPa·s
same,electrical conductivity,"318.15 K, x1 = 1",0.759 S/m
same,viscosity,"318.15 K, x1 = 1",19.91 mPa·s
CCC(=O)[O-].COCCn1cc[n+](C)c1 + O,electrical conductivity,"288.15 K, x1 = 0.8582",0.278 S/m
same,viscosity,"288.15 K, x1 = 0.8582",88.4 mPa·s
same,electrical conductivity,"288.15 K, x1 = 0.9175",0.201 S/m
same,viscosity,"288.15 K, x1 = 0.9175",104.5 mPa·s
same,electrical conductivity,"288.15 K, x1 = 0.9479",0.169 S/m
same,viscosity,"288.15 K, x1 = 0.9479",113.9 mPa·s
same,electrical conductivity,"293.15 K, x1 = 0.8302",0.362 S/m
same,viscosity,"293.15 K, x1 = 0.8302",61.46 mPa·s
same,electrical conductivity,"293.15 K, x1 = 0.8582",0.324 S/m
same,viscosity,"293.15 K, x1 = 0.8582",66.3 mPa·s
same,electrical conductivity,"293.15 K, x1 = 0.8879",0.289 S/m
same,viscosity,"293.15 K, x1 = 0.8879",72.1 mPa·s
same,electrical conductivity,"293.15 K, x1 = 0.9175",0.254 S/m
same,viscosity,"293.15 K, x1 = 0.9175",78.1 mPa·s
same,electrical conductivity,"293.15 K, x1 = 1",0.166 S/m
same,viscosity,"293.15 K, x1 = 1",93.3 mPa·s
same,electrical conductivity,"298.15 K, x1 = 0.8582",0.387 S/m
same,viscosity,"298.15 K, x1 = 0.8582",50.5 mPa·s
same,electrical conductivity,"298.15 K, x1 = 0.8879",0.352 S/m
same,viscosity,"298.15 K, x1 = 0.8879",54.67 mPa·s
same,electrical conductivity,"298.15 K, x1 = 0.9175",0.315 S/m
same,viscosity,"298.15 K, x1 = 0.9175",59.23 mPa·s
same,electrical conductivity,"303.15 K, x1 = 0.8302",0.523 S/m
same,viscosity,"303.15 K, x1 = 0.8302",37.29 mPa·s
same,electrical conductivity,"303.15 K, x1 = 0.8879",0.448 S/m
same,viscosity,"303.15 K, x1 = 0.8879",42.96 mPa·s
same,electrical conductivity,"303.15 K, x1 = 0.9175",0.411 S/m
same,viscosity,"303.15 K, x1 = 0.9175",46.22 mPa·s
same,electrical conductivity,"303.15 K, x1 = 0.9479",0.378 S/m
same,viscosity,"303.15 K, x1 = 0.9479",49.63 mPa·s
same,electrical conductivity,"303.15 K, x1 = 1",0.32 S/m
same,viscosity,"303.15 K, x1 = 1",54.2 mPa·s
same,electrical conductivity,"308.15 K, x1 = 0.8302",0.625 S/m
same,viscosity,"308.15 K, x1 = 0.8302",29.69 mPa·s
same,electrical conductivity,"308.15 K, x1 = 0.8582",0.584 S/m
same,viscosity,"308.15 K, x1 = 0.8582",31.71 mPa·s
same,electrical conductivity,"308.15 K, x1 = 0.8879",0.548 S/m
same,viscosity,"308.15 K, x1 = 0.8879",33.88 mPa·s
same,electrical conductivity,"308.15 K, x1 = 0.9175",0.511 S/m
same,viscosity,"308.15 K, x1 = 0.9175",36.42 mPa·s
same,electrical conductivity,"308.15 K, x1 = 0.9479",0.479 S/m
same,viscosity,"308.15 K, x1 = 0.9479",39.09 mPa·s
same,electrical conductivity,"308.15 K, x1 = 1",0.42 S/m
same,viscosity,"308.15 K, x1 = 1",42.49 mPa·s
same,electrical conductivity,"313.15 K, x1 = 0.8302",0.724 S/m
same,viscosity,"313.15 K, x1 = 0.8302",24.42 mPa·s
same,electrical conductivity,"313.15 K, x1 = 0.8582",0.687 S/m
same,viscosity,"313.15 K, x1 = 0.8582",25.86 mPa·s
same,electrical conductivity,"313.15 K, x1 = 0.8879",0.653 S/m
same,viscosity,"313.15 K, x1 = 0.8879",27.57 mPa·s
same,electrical conductivity,"313.15 K, x1 = 0.9175",0.616 S/m
same,viscosity,"313.15 K, x1 = 0.9175",29.53 mPa·s
same,electrical conductivity,"313.15 K, x1 = 1",0.532 S/m
same,viscosity,"313.15 K, x1 = 1",33.96 mPa·s
same,electrical conductivity,"318.15 K, x1 = 0.8302",0.881 S/m
same,viscosity,"318.15 K, x1 = 0.8302",18.8 mPa·s
same,electrical conductivity,"318.15 K, x1 = 0.8879",0.799 S/m
same,viscosity,"318.15 K, x1 = 0.8879",21.28 mPa·s
same,electrical conductivity,"318.15 K, x1 = 0.9175",0.759 S/m
same,viscosity,"318.15 K, x1 = 0.9175",22.93 mPa·s
same,electrical conductivity,"318.15 K, x1 = 1",0.663 S/m
same,viscosity,"318.15 K, x1 = 1",26.51 mPa·s
